One test has as its target FKBP (Homo sapiens, UniProt P62942). In words: Inhibition of FKBP PPIase (rotamase) activity, chymotrypsin-coupled assay. The test is classed as biochemical. The settings on record: apparent Ki. The source says:
The inhibition of the PPIase (rotamase) enzyme activity of the FKBP (apparent "Ki" values) can also be measured according to the methods described by either Harding, M.W. et al., Nature 341:758-760 (1989) or Siekierka, J.J. et al., Nature 341:755-757 (1989). The cis-trans isomerization of the […] peptide bond in a model substrate, N-succinyl-Ala-Ala-Pro-Phe-p-nitroanilide, is monitored spectrophotometrically in a coupled assay with chymotrypsin, which releases 4-nitroanilide from the trans form of the substrate. Fischer, G. et al., Nature 337:476-478 (1989). The inhibitory effect of the addition of different concentrations of inhibitor on the extent of the reaction is determined, and analysis of the change in first order rate constant as a function of inhibitor concentration yields an estimate of the apparent Ki value.

The next test concerns the target FK-506 binding protein (Homo sapiens, UniProt P62942). In words: Competitive binding assay with [3H]dihydro-FK-506. To be noted: binding to FKBP; apparent Kd, competition with [3H]dihydro-FK-506.
In test [1] the test system is human peripheral blood lymphocytes (PBC). In words: Mitogenesis assay, PMA plus ionomycin stimulated proliferation. The test is classed as cell-based. The settings on record: Lymphocyte, read-out: PMA.
Source text: (§4) Fresh peripheral blood lymphocytes (PBLs) from LeukoPak cells or whole blood from random normal blood donors (tested HIV-negative and hepatitis negative) are isolated and separated by density centrifugation over Histopaque 1077 (Sigma Chemical Co., St. Louis, MO). […] The human allogeneic B cell lines used for activation of the fresh PBLs are EBV-transformed lymphocytes from normal healthy adult donors with two completely different HLA haplotypes. All cell lines were routinely tested for the presence of Mycoplasma contamination using the Gibco Mycotect test kit and are Mycoplasma-free. Culture medium consists of RPMI 1640 (Gibco, Grand Island, NY) containing penicillin (50 U/ml) and streptomycin (50 µg/ml), L-glutamine 2 mM, 2 mercaptoethanol (5 x 10^-5), 10% heat-inactivated FCS and 10 mM HEPES.
Test [2] has the same test system. In words: Mitogenesis assay, OKT3 stimulated proliferation. The test is classed as cell-based. The settings on record: Lymphocyte, read-out: OKT3.
Source text: as §4
In test [3] the test system is PBLs stimulated with LB human viral-transformed B lymphoblastoid cell line. In words: MLR bioassay, PBLs stimulated with LB cells. The test is classed as cell-based. The settings on record: read-out: LB. The source says:
(§1) Fresh peripheral blood lymphocytes (PBLs) from LeukoPak cells or whole blood from random normal blood donors (tested HIV-negative and hepatitis negative) are isolated and separated by density centrifugation over Histopaque 1077 (Sigma Chemical Co., St. Louis, MO). The murine CTLL cytotoxic T cell line and the human Jurkat T cell line are from ATCC (CTLL-2 ATCC TIB214, JURKAT CLONE E6-1 ATCC TIBl52). The human allogeneic B cell lines used for activation of the fresh PBLs are EBV-transformed lymphocytes from normal healthy adult donors with two completely different HLA haplotypes. All cell lines were routinely tested for the presence of Mycoplasma contamination using the Gibco Mycotect test kit and are Mycoplasma-free. Culture medium consists of RPMI 1640 (Gibco, Grand Island, NY) containing penicillin (50 U/ml) and streptomycin (50 µg/ml), L-glutamine 2 mM, 2 mercaptoethanol (5 x 10^-5), 10% heat-inactivated FCS and 10 mM HEPES.
(§2) All chemical stocks were dissolved in DMSO.
(§3) Antigen activated proliferation of PBLs in a primary mixed lymphocyte reaction was assessed in the presence or absence of different concentrations of tested compounds and control drugs. 5 x 10^4 fresh PBLs were stimulated with 5 x 10^3 of Mitomycin C treated-allogeneic EBV-transformed […] cells, LB and JVM, in a final volume of 200 µl per well in 96-well round-bottomed plates (Mishell, B.B. and S.M. Shiigi, Selected Methods in Cellular Immunology W.H. Freeman and Co., San Francisco, CA (1980); Nelson, P.A. et al., Transplantation 50:286 (1990)). Cultures were pulsed on day 6, harvested 24 h later and counted as in previous section.

Test [4] has as its system PBLs stimulated with JVM human viral-transformed B lymphoblastoid cell line. In words: MLR bioassay, PBLs stimulated with JVM cells. The test is classed as cell-based. To be noted: read-out: JVM.
Source text: as §1, §2, §3

Test [5] has as its system CTLL-20 murine T cell line. In words: IL-2 microassay, IL-2 dependent CTLL proliferation. The test is classed as cell-based. The settings on record: Mus musculus, read-out: CTLL.
Source text: as §4
Test [6] relates to fresh human peripheral blood lymphocytes. In words: Table 3 assay 1: human PBL + OKT3 proliferation. The test is classed as cell-based. To be noted: Lymphocyte, OKT3 antibody (anti-CD3) stimulation, (3H)TdR incorporation, estimated.
The subject of test [7] is T-cell clone stimulated with antibody to the T-cell receptor (TCR) and antibody to CD2. In words: Table 3 assay 2: T-cell hybridoma + TCR/CD2 proliferation. The test is classed as cell-based. The settings on record: (3H)TdR incorporation, estimated.
The test system of another test is CTLL cells. In words: Table 3 assay 4: CTLL proliferation + IL-2. The class given is cell-based. To be noted: Mus musculus, exogenous IL-2, (3H)TdR incorporation.
Where [8] appears, read: OKT3 (10^-4 dilution final), inhibition of proliferation, 3H-thymidine.
The mark [9] stands for this setting: mixed lymphocyte reaction, LB stimulator cells, inhibition of proliferation.
Where [10] appears, read: mixed lymphocyte reaction, JVM stimulator cells, inhibition of proliferation.
Setting [11] is: inhibition of proliferation of cytotoxic T cells stimulated by IL-2.

The values that follow come from patent EP0584223B1, “NOVEL IMMUNOSUPPRESSIVE COMPOUNDS” (VERTEX PHARMACEUTICALS INCORPORATED, priority 1991, dated 1992).

Read-outs that look alike come from different tables or passages of the source.

FKBP, sequence (P62942 whole entry): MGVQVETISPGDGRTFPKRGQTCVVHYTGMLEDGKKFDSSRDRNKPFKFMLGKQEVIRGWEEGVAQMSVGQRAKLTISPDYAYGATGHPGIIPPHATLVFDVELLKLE
FK-506 binding protein, sequence (P62942 whole entry): as above

Consider `COc1cc(C(=O)C(=O)N2CCCC[C@H]2C(=O)OC(CCCc2ccccc2)/C(C)=C/[C@H]2CC[C@H](O)CC2)cc(OC)c1OC` (mixture of isomers) [Compound 8, (R and S)-(E)-1-[trans-(4-Hydroxycyclohexyl)]-2-methyl-6-phenyl-3-hex-1-enyl (S)-N-(3,4,5-trimethoxyphenylglyoxyl)pipecolate], for which, at FKBP, the Ki amounted to 0.027 µM. Also, the Kd at FK-506 binding protein came to 0.03 µM. Also, the IC50 in test [1] (3 h) was determined as 4 µM; in test [2] (setting [8]) it was 5 µM; in test [3] (setting [9]), 10 µM; in test [4] (setting [10]) it was 10 µM; in test [5] (setting [11]) it was 4 µM.

Regarding `COc1cc(C(=O)C(=O)N2CCCC[C@H]2C(=O)OC(CCCc2ccccc2)c2ccccc2)cc(OC)c1OC` (stereo partly drawn) [Compound 6], the Ki at FKBP came to 0.08 µM. In addition, the Kd on FK-506 binding protein is 0.04 µM. Moreover, the IC50 in test [1] (3 h) was found to be 8 µM; in [2] (setting [8]) it was 8 µM; in [3] (setting [9]), 10 µM; in test [4] (setting [10]), 9 µM; in test [5] (setting [11]), 5 µM.

For `COc1ccc(CCC(CCCc2ccccc2)OC(=O)[C@@H]2CCCCN2C(=O)C(=O)c2cc(OC)c(OC)c(OC)c2)cc1` (stereo partly drawn) [Compound 13], on FKBP, the Ki came out at 0.004 µM. On FK-506 binding protein, the Kd came out at 0.027 µM. In addition, the IC50 was 8 µM in test [1] (3 h); 10 µM in [2] (setting [8]); > 10 µM in [3] (setting [9]); > 10 µM in test [4] (setting [10]); 9 µM in test [5] (setting [11]).

In the case of `COc1ccc(CCCC(CCCc2ccccc2)OC(=O)[C@@H]2CCCCN2C(=O)C(=O)c2cc(OC)c(OC)c(OC)c2)cc1` (stereo partly drawn) [Compound 17], the Ki on FKBP amounted to 0.003 µM. Also, the Kd at FK-506 binding protein came out at 0.068 µM. Also, the IC50 was 4.5 µM in test [1]; 2.5 µM in [2]; 5.5 µM in [3]; 7 µM in test [4]; > 10 µM in test [5] (CTLL).

For `COc1cc(C(=O)C(=O)N2CCCC[C@H]2C(=O)OC(CCCc2ccccc2)CCCc2ccc(CO)cc2)cc(OC)c1OC` (stereo partly drawn) [Compound 26], the Ki at FKBP worked out at 0.004 µM. Also, the Kd at FK-506 binding protein amounted to 0.019 µM. The IC50 in test [1] (3 h) came to 3 µM; in test [2] (setting [8]) it was 1 µM; in test [3] (setting [9]), 3 µM; in test [4] (setting [10]) it was 2.5 µM; in [5] (setting [11]) it was 4 µM.

`C=CCOc1cccc(C(=O)C(=O)N2CCCC[C@H]2C(=O)OC(CCCc2ccccc2)CCCc2cccnc2)c1` (stereo partly drawn) [Compound 28]: the Ki on FKBP is 0.011 µM. Also, the IC50 in test [1] (3 h) was 5 µM; in test [2] (setting [8]), 6 µM; in test [3] (setting [9]), 8 µM; in test [4] (setting [10]) it was 9 µM; in test [5] (setting [11]) it was 3 µM.

As to `CC(C)Oc1cccc(C(=O)C(=O)N2CCCC[C@H]2C(=O)OC(CCCc2ccccc2)CCCc2cccnc2)c1` (stereo partly drawn) [Compound 29], at FKBP, the Ki stood at 0.002 µM. In addition, the Kd at FK-506 binding protein is 0.003 µM. Besides, the IC50 in test [1] (3 h) was 10 µM; in test [2] (setting [8]) it was 8 µM; in test [3] (setting [9]), > 10 µM; in test [4] (setting [10]), > 10 µM; in test [5] (setting [11]), 4 µM.

With `COc1cc(C(=O)C(=O)N2CCCC[C@H]2C(=O)OC(CCCCc2ccccc2)CCCc2ccccc2)cc(OC)c1OC` (stereo partly drawn) [Compound 32], the Ki on FKBP amounted to 0.02 µM. For the same molecule, the IC50 was 9 µM in [1] (3 h); 8 µM in test [2] (setting [8]); > 10 µM in [3] (setting [9]); > 10 µM in [4] (setting [10]); 7.5 µM in test [5] (setting [11]).

Take `COc1cc(C(=O)C(=O)N2CCCC[C@H]2C(=O)OC(CCCc2ccccc2)c2ccccc2CO)cc(OC)c1OC` (stereo partly drawn) [Compound 33]: the Ki on FKBP is 0.089 µM. Further, the IC50 was 5 µM in test [1] (3 h); 5 µM in test [2] (setting [8]); 2 µM in test [3] (setting [9]); 4.5 µM in [4] (setting [10]); 3 µM in test [5] (setting [11]).

For `COc1cc(C(=O)C(=O)N2CCCC[C@H]2C(=O)OC(CCCc2ccccc2)CCCc2cccc(CO)c2)cc(OC)c1OC` (stereo partly drawn) [Compound 35], on FKBP, the Ki was 0.001 µM. For the same molecule, the Kd on FK-506 binding protein is 0.04 µM. Further, the IC50 in test [1] (3 h) came out at 2.7 µM; in test [2] (setting [8]), 6.5 µM; in test [3] (setting [9]), 2.5 µM; in [4] (setting [10]), 3 µM; in test [5] (setting [11]), 2.5 µM.

For the molecule `COc1cc(C(=O)C(=O)N2CCCC[C@H]2C(=O)OC(CCCc2ccccc2)CCCc2cccc(C(=O)O)c2)cc(OC)c1OC` (stereo partly drawn) [Compound 36], the Ki on FKBP was determined as 0.004 µM. The Kd on FK-506 binding protein was 0.02 µM. The IC50 is > 10 µM in test [1] (3 h); > 10 µM in test [2] (setting [8]); > 10 µM in test [3] (setting [9]); 9 µM in test [4] (setting [10]); > 10 µM in test [5] (setting [11]).

On to `COc1cc(C(=O)C(=O)N2CCCC[C@H]2C(=O)OC(CCCc2ccccc2)c2cccc(CO)c2)cc(OC)c1OC` (stereo partly drawn) [Compound 37], for which, on FKBP, the Ki worked out at 0.007 µM. Besides, on FK-506 binding protein, the Kd is 0.14 µM. The IC50 in test [1] (3 h) was 2 µM; in [2] (setting [8]) it was 5 µM; in [3] (setting [9]) it was 1.2 µM; in [4] (setting [10]), 2.2 µM; in test [5] (setting [11]), 1.2 µM.

Consider `COc1cc(C(=O)C(=O)N2CCCC[C@H]2C(=O)OC(CCCCc2ccccc2)CCCc2cccs2)cc(OC)c1OC` (stereo partly drawn) [Compound 40], for which, on FKBP, the Ki is 1.1 µM. Further, the IC50 was > 10 µM in [1] (3 h); > 10 µM in test [2] (setting [8]); > 10 µM in test [3] (setting [9]); > 10 µM in test [4] (setting [10]); 10 µM in test [5] (setting [11]).

Consider `COc1cc(C(=O)C(=O)N2CCCC[C@H]2C(=O)OC(CCCCCc2ccccc2)CCCc2ccccc2)cc(OC)c1OC` (stereo partly drawn) [Compound 41], for which, on FKBP, the Ki is 0.045 µM. The IC50 in test [1] (3 h) was 7 µM; in [2] (setting [8]), > 10 µM; in test [3] (setting [9]) it was > 10 µM; in test [4] (setting [10]) it was 10 µM; in test [5] (setting [11]), > 10 µM.

In the case of `C=CC[C@@H]1/C=C(\C)C[C@H](C)C[C@H](OC)[C@H]2O[C@@](O)(C(=O)C(=O)N3CCCC[C@H]3C(=O)O[C@H](/C(C)=C/[C@@H]3CC[C@@H](O)[C@H](OC)C3)[C@H](C)[C@@H](O)CC1=O)[C@H](C)C[C@@H]2OC` [FK-506], the values for the IC50 (in [6]; in test [7]; in the test with CTLL cells) were < 1 µg/mL, < 1 µg/mL and > 1 µg/mL, respectively.
